The source of these data is patent publication USRE47302E1 (ONYX THERAPEUTICS INC., priority 2013, dated 2019).

pIC50: −log10 of the molar value. Converted amounts (≈) assume the structure as drawn.

Data set [1] deals with human 20S immunoproteasome (i20S) (Homo sapiens, UniProt P28062). Nature of the data set: 20S proteasome assay, chymotrypsin-like activity (succinyl-Leu-Leu-Val-Tyr-AMC), i20S. In kind it is biochemical. The settings on record: LLVY substrate, 1 h continuous. An excerpt:
(§1) Assay buffer consisted of TE buffer [20 mmol/L Tris (pH 8.0), 0.5 mmol/L EDTA] with (20S) or without (cell lysate) 0.03% SDS. Reactions were initiated by enzyme or lysate addition and monitored for AMC product formation at 27jC with a plate-based spectofluorometer (Tecan).

Data set [2] has as its target human constitutive 20S proteasome (c20S) (Homo sapiens, UniProt P28074). Nature of the data set: 20S proteasome assay, chymotrypsin-like activity (succinyl-Leu-Leu-Val-Tyr-AMC), c20S. In kind it is biochemical. As to conditions: LLVY substrate, 1 h continuous.
Source text: as §1

A further data set can be described thus: Solubility pH 7. The settings on record: pH 7, aqueous buffer.

Turning to `COc1ccc(C[C@H](NC(=O)[C@H](C)NC(=O)CN2CCOCC2)C(=O)N[C@@H](CC2CCCC2)C(=O)[C@@]2(C)CO2)c(F)c1` [Compound C-1008, (S)-N-((S)-3-cyclopentyl-1-((R)-2-methyloxiran-2-yl)-1-oxopropan-2-yl)-3-(2-fluoro-4-methoxyphenyl)-2-((S)-2-(2-morpholinoacetamido)propanamido)propanamide], the negative-log IC50 (pIC50) in data set [1] was 5.60; in data set [2], 5.47. Further, the solubility in the data set “Solubility pH 7” came out at 1.43 mg/mL (≈ 2420 µM).
With `C[C@H](NC(=O)CN1CCOCC1)C(=O)N[C@@H](Cc1ccco1)C(=O)N[C@@H](CC1CCCC1)C(=O)[C@@]1(C)CO1` [Compound C-1013, (S)-N-((S)-3-cyclopentyl-1-((R)-2-methyloxiran-2-yl)-1-oxopropan-2-yl)-3-(furan-2-yl)-2-((S)-2-(2-morpholinoacetamido)propanamido)propanamide], the pIC50 in data set [1] is 6.35; in data set [2] it was 6.26. In “Solubility pH 7”, this compound showed a solubility of 0.911 mg/mL (≈ 1710 µM).
On the same counts, the results for `C[C@H](NC(=O)CN1CCOCC1)C(=O)N[C@@H](Cc1c[nH]c2ccccc12)C(=O)N[C@@H](CC1CCCC1)C(=O)[C@@]1(C)CO1` [Compound C-1014, (S)-N-((S)-3-cyclopentyl-1-((R)-2-methyloxiran-2-yl)-1-oxopropan-2-yl)-3-(1H-indol-3-yl)-2-((S)-2-(2-morpholinoacetamido)propanamido)propanamide] are 6.54, 6.09 and 1.02 mg/mL (≈ 1750 µM).
With `COc1ccc([C@H](O)[C@H](NC(=O)[C@H](C)NC(=O)CN2CCOCC2)C(=O)N[C@@H](CC2CCCC2)C(=O)[C@@]2(C)CO2)cc1` [Compound C-1023, (2S,3S)-N-((S)-3-cyclopentyl-1-((R)-2-methyloxiran-2-yl)-1-oxopropan-2-yl)-3-hydroxy-3-(4-methoxyphenyl)-2-((S)-2-(2-morpholinoacetamido)propanamido)propanamide], the figures for the negative logarithm of the IC50 (pIC50) in data set [1] and in data set [2] were 6.49 and 5.73, respectively. Further, the concentration in solution in “Solubility pH 7” (solubility) was 3.87 mg/mL (≈ 6570 µM).
In the same order, the values of `C[C@H](NC(=O)CN1CCOCC1)C(=O)N[C@@H](Cc1cccc(S(C)(=O)=O)c1)C(=O)N[C@@H](CC1CCCC1)C(=O)[C@@]1(C)CO1` [Compound C-1024, (S)-N-((S)-3-cyclopentyl-1-((R)-2-methyloxiran-2-yl)-1-oxopropan-2-yl)-3-(3-(methylsulfonyl)phenyl)-2-((S)-2-(2-morpholinoacetamido)propanamido)propanamide] are 6.15, 6.15 and 4.76 mg/mL (≈ 7670 µM).
In the same order, the values of `COc1ccc(C[C@H](NC(=O)[C@@H](C)NC(=O)[C@@H]2CCCO2)C(=O)N[C@@H](CC2CCCC2)C(=O)[C@@]2(C)CO2)cc1` [Compound C-1031, (S)-N-((R)-1-(((S)-1-(((S)-3-cyclopentyl-1-((R)-2-methyloxiran-2-yl)-1-oxopropan-2-yl)amino)-3-(4-methoxyphenyl)-1-oxopropan-2-yl)amino)-1-oxopropan-2-yl)tetrahydrofuran-2-carboxamide] are 5.53, less than 3.60 and 0.462 mg/mL (≈ 850 µM).
In the same order, the values of `COc1ccc(C[C@H](NC(=O)[C@@H](C)NC(=O)[C@H]2CCCO2)C(=O)N[C@@H](CC2CCCC2)C(=O)[C@@]2(C)CO2)cc1` [Compound C-1032, (R)-N-((R)-1-(((S)-1-(((S)-3-cyclopentyl-1-((R)-2-methyloxiran-2-yl)-1-oxopropan-2-yl)amino)-3-(4-methoxyphenyl)-1-oxopropan-2-yl)amino)-1-oxopropan-2-yl)tetrahydrofuran-2-carboxamide] are 6.36, 4.61 and 0.251 mg/mL (≈ 462 µM).
Regarding `COc1ccc(C[C@H](NC(=O)[C@H](C)NC(=O)CN2CCOCC2)C(=O)N[C@@H](C[C@@H]2CCC(F)(F)C2)C(=O)[C@@]2(C)CO2)cc1` [Compound C-1033, (S)-N-((S)-3-((S)-3,3-difluorocyclopentyl)-1-((R)-2-methyloxiran-2-yl)-1-oxopropan-2-yl)-3-(4-methoxyphenyl)-2-((S)-2-(2-morpholinoacetamido)propanamido)propanamide], the pIC50 is 5.51 in data set [1] and 3.92 in data set [2]. This compound also registered a solubility in the data set “Solubility pH 7” of 3.21 mg/mL (≈ 5280 µM).
For the compound `COc1ccc(C[C@H](NC(=O)[C@H](C)NC(=O)CN2CCOCC2)C(=O)N[C@@H](C[C@H]2CCC(F)(F)C2)C(=O)[C@@]2(C)CO2)cc1` [Compound C-1034, (S)-N-((S)-3-((R)-3,3-difluorocyclopentyl)-1-((R)-2-methyloxiran-2-yl)-1-oxopropan-2-yl)-3-(4-methoxyphenyl)-2-((S)-2-(2-morpholinoacetamido)propanamido)propanamide], the pIC50 in data set [1] is 5.98; in data set [2], 4.60. In addition, the solubility in the data set “Solubility pH 7” was 2.78 mg/mL (≈ 4570 µM).
In the case of `COc1ccc(C[C@H](NC(=O)[C@@H](C)NC(=O)[C@@H]2CCOC2)C(=O)N[C@@H](CC2CCCC2)C(=O)[C@@]2(C)CO2)cc1` [Compound C-1036, (R)-N-((R)-1-(((S)-1-(((S)-3-cyclopentyl-1-((R)-2-methyloxiran-2-yl)-1-oxopropan-2-yl)amino)-3-(4-methoxyphenyl)-1-oxopropan-2-yl)amino)-1-oxopropan-2-yl)tetrahydrofuran-3-carboxamide], the figures for the pIC50 in data set [1] and in data set [2] were 6.32 and 4.78, respectively. The compound also had a solubility in the data set “Solubility pH 7” of 0.277 mg/mL (≈ 510 µM).
On the same counts, the results for `COc1ccc(C[C@H](NC(=O)[C@@H](C)NC(=O)[C@H]2CCOC2)C(=O)N[C@@H](CC2CCCC2)C(=O)[C@@]2(C)CO2)cc1` [Compound C-1037, (S)-N-((R)-1-(((S)-1-(((S)-3-cyclopentyl-1-((R)-2-methyloxiran-2-yl)-1-oxopropan-2-yl)amino)-3-(4-methoxyphenyl)-1-oxopropan-2-yl)amino)-1-oxopropan-2-yl)tetrahydrofuran-3-carboxamide] are 6.45, 5.23 and 1.33 mg/mL (≈ 2440 µM).
For the compound `C[C@H](NC(=O)CN1CCOCC1)C(=O)N[C@@H](Cc1ccc(O)c(O)c1)C(=O)N[C@@H](CC1CCCC1)C(=O)[C@@]1(C)CO1` [Compound C-1039, (S)-N-((S)-3-cyclopentyl-1-((R)-2-methyloxiran-2-yl)-1-oxopropan-2-yl)-3-(3,4-dihydroxyphenyl)-2-((S)-2-(2-morpholinoacetamido)propanamido)propanamide], the pIC50 in data set [1] was 6.69; in data set [2] it was 6.16. Further, the concentration in solution in “Solubility pH 7” (solubility) came to 7.01 mg/mL (≈ 12200 µM).
Consider `COc1ccc(C[C@H](NC(=O)[C@H](C)NC(=O)CN2CCCC(F)(F)C2)C(=O)N[C@@H](CC2CCCC2)C(=O)[C@@]2(C)CO2)cc1` [Compound C-1043, (S)-N-((S)-3-cyclopentyl-1-((R)-2-methyloxiran-2-yl)-1-oxopropan-2-yl)-2-((S)-2-(2-(3,3-difluoropiperidin-1-yl)acetamido)propanamido)-3-(4-methoxyphenyl)propanamide], for which the pIC50 in data set [1] is 6.60; in data set [2] it was 6.39. This compound returned a solubility in “Solubility pH 7” of 0.0792 mg/mL (≈ 131 µM).
